# Test results taken from US12559529B2, “NPY2 receptor agonists” (Boehringer Ingelheim International GmbH, priority 2019, dated 2026).
# pKi: −log10 of the molar value. *1 amine or outer side, *2 acyl side, *3 side chain or, on linkers, in order; H or OH if unused. Where a SMILES comes first, the peptide text is derived from it. Side-chain parts run from the residue outwards. The star is where a group is joined. C18 diacid = O=C(O)CCCCCCCCCCCCCCCCC(=O)*; γGlu = O=C(O)[C@H](CCC(=O)[*:2])N[*:1]; Isovaleryl = CC(C)CC(=O)*; AEEA = NCCOCCOCC(=O)O
# Target: T1, Human Neuropeptide Y2 Receptor (Homo sapiens, UniProt P49146)
# T1 construct: purchased CHEMICON HTS066M
# T1 sequence (P49146 1-381): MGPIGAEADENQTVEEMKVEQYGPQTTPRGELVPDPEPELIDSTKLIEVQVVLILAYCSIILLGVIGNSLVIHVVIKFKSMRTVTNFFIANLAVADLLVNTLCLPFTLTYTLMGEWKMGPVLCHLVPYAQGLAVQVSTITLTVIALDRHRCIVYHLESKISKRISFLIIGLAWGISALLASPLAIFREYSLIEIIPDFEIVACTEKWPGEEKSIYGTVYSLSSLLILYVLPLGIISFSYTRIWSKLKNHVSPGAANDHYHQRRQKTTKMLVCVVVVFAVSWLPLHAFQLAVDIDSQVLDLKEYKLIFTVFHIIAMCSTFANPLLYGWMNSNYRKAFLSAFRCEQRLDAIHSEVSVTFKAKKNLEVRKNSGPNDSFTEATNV
# Experiment: Radioligand binding competition assay (RLB)
# Details: Table 3; human 125I-PYY (1-36) 0.02 nM, Y2 receptor membranes; read-out: Ki
# Outline: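 Membranes from cells expressing human Y2 receptor (0.5 μg protein/well) were incubated with radioligand and serially diluted peptides in 50 mM HEPES, 5 mM MgCl2, 1 mM CaCl2, 0.2% ovalbumin, pH 7.4, for 2 h at room temperature with shaking. Bound radioactivity was collected by filtration and counted; IC50 from sigmoidal nonlinear regression.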
row,Compound,pKi
1,"CC(C)CC(=O)N[C@@H](C)C(=O)N1CCC[C@H]1C(=O)N[C@@H](CCC(=O)O)C(=O)N[C@@H](CCCCNC(=O)COCCOCCNC(=O)COCCOCCNC(=O)CC[C@H](NC(=O)CCCCCCCCCCCCCCCCC(=O)O)C(=O)O)C(=O)N1CCC[C@H]1C(=O)N[C@@H](CCC(=O)O)C(=O)N[C@@H](CCC(=O)O)C(=O)N[C@@H](CC(=O)O)C(=O)N[C@H](C(=O)N[C@@H](CO)C(=O)N1CCC[C@H]1C(=O)N[C@@H](CCC(=O)O)C(=O)N[C@@H](CCC(=O)O)C(=O)N[C@@H](CC(C)C)C(=O)N[C@@H](CCC(N)=O)C(=O)N[C@@H](CCCNC(=N)N)C(=O)N[C@@H](Cc1ccc(O)cc1)C(=O)N[C@@H](Cc1ccc(O)cc1)C(=O)N[C@H](C(=O)N[C@@H](CCC(=O)O)C(=O)N[C@@H](CC(C)C)C(=O)N[C@@H](CCCNC(=N)N)C(=O)N[C@@H](Cc1c[nH]cn1)C(=O)N[C@@H](Cc1ccc(O)cc1)C(=O)N[C@@H](Cc1ccc(O)cc1)C(=O)N[C@@H](CC(N)=O)C(=O)N[C@@H](Cc1c[nH]c2ccccc12)C(=O)N[C@@H](CC(C)C)C(=O)N[C@H](C(=O)N[C@@H](CCCNC(=N)N)C(=O)N[C@@H](CCC(N)=O)C(=O)N[C@@H](CCCNC(=N)N)C(=O)N[C@@H](Cc1ccc(O)cc1)C(N)=O)[C@@H](C)O)C(C)C)[C@@H](C)O [Compound 28, N{alpha-4}-(3-methylbutanoyl)-N{epsilon-7}-[2-(2-{2-[2-(2-{2-[(4S)-4-carboxy-4-(17-carboxyheptadecanamido)butanamido]ethoxy}ethoxy)acetamido]ethoxy}ethoxy)acetamido]-[4A,7K,9E,12T,18Q,22V,23E,28Y,30W,31L]hPYY (4-36)]",8.22
2,"CC(C)CC(=O)N[C@@H](C)C(=O)N1CCC[C@H]1C(=O)N[C@@H](CCC(=O)O)C(=O)N[C@@H](CCCCNC(=O)COCCOCCNC(=O)COCCOCCNC(=O)CC[C@H](NC(=O)CCCCCCCCCCCCCCCCC(=O)O)C(=O)O)C(=O)N1CCC[C@H]1C(=O)N[C@@H](CCC(=O)O)C(=O)N[C@@H](CCC(=O)O)C(=O)N[C@@H](CC(=O)O)C(=O)N[C@H](C(=O)N[C@@H](CO)C(=O)N1CCC[C@H]1C(=O)N[C@@H](CCC(=O)O)C(=O)N[C@@H](CCC(=O)O)C(=O)N[C@@H](CC(C)C)C(=O)N[C@@H](CCC(N)=O)C(=O)N[C@@H](CCCNC(=N)N)C(=O)N[C@@H](Cc1ccc(O)cc1)C(=O)N[C@@H](CCC(=O)O)C(=O)N[C@H](C(=O)N[C@@H](CO)C(=O)N[C@@H](CC(C)C)C(=O)N[C@@H](CCCNC(=N)N)C(=O)N[C@@H](Cc1c[nH]cn1)C(=O)N[C@@H](Cc1ccc(O)cc1)C(=O)N[C@@H](Cc1ccc(O)cc1)C(=O)N[C@@H](CC(N)=O)C(=O)N[C@@H](Cc1c[nH]c2ccccc12)C(=O)N[C@@H](CC(C)C)C(=O)N[C@H](C(=O)N[C@@H](CCCNC(=N)N)C(=O)N[C@@H](CCC(N)=O)C(=O)N[C@@H](CCCNC(=N)N)C(=O)N[C@@H](Cc1ccc(O)cc1)C(N)=O)[C@@H](C)O)C(C)C)[C@@H](C)O [Compound 32, N{alpha-4}-(3-methylbutanoyl)-N{epsilon-7}-[2-(2-{2-[2-(2-{2-[(4S)-4-carboxy-4-(17-carboxyheptadecanamido)butanamido]ethoxy}ethoxy)acetamido]ethoxy}ethoxy)acetamido]-[4A,7K,9E,12T,18Q,21E,22V,28Y,30W,31L]hPYY (4-36)] (Isovaleryl-APEK([AEEA-AEEA-γGlu-C18 diacid])PEEDTSPEELQRYEVSLRHYYNWLTRQRY-NH2)",8.32
3,"CC(C)CC(=O)N[C@@H](C)C(=O)N1CCC[C@H]1C(=O)N[C@@H](CCC(=O)O)C(=O)N[C@@H](CCCCNC(=O)COCCOCCNC(=O)COCCOCCNC(=O)CC[C@H](NC(=O)CCCCCCCCCCCCCCCCC(=O)O)C(=O)O)C(=O)N1CCC[C@H]1C(=O)N[C@@H](CCC(=O)O)C(=O)N[C@@H](CCC(=O)O)C(=O)N[C@@H](CC(=O)O)C(=O)N[C@@H](C)C(=O)N[C@@H](CO)C(=O)N1CCC[C@H]1C(=O)N[C@@H](CCC(=O)O)C(=O)N[C@@H](CCC(=O)O)C(=O)N[C@@H](CC(C)C)C(=O)N[C@@H](CCC(N)=O)C(=O)N[C@@H](CCCNC(=N)N)C(=O)N[C@@H](Cc1ccc(O)cc1)C(=O)N[C@@H](Cc1ccc(O)cc1)C(=O)N[C@H](C(=O)N[C@@H](CO)C(=O)N[C@H](C(=O)N[C@@H](CCCNC(=N)N)C(=O)N[C@@H](Cc1c[nH]cn1)C(=O)N[C@@H](Cc1ccc(O)cc1)C(=O)N[C@@H](Cc1ccc(O)cc1)C(=O)N[C@@H](CC(N)=O)C(=O)N[C@@H](Cc1c[nH]c2ccccc12)C(=O)N[C@@H](CC(C)C)C(=O)N[C@H](C(=O)N[C@@H](CCCNC(=N)N)C(=O)N[C@@H](CCC(N)=O)C(=O)N[C@@H](CCCNC(=N)N)C(=O)N[C@@H](Cc1ccc(O)cc1)C(N)=O)[C@@H](C)O)[C@@H](C)O)C(C)C [Compound 34, N{alpha-4}-(3-methylbutanoyl)-N{epsilon-7}-[2-(2-{2-[2-(2-{2-[(4S)-4-carboxy-4-(17-carboxyheptadecanamido)butanamido]ethoxy}ethoxy)acetamido]ethoxy}ethoxy)acetamido]-[4A,7K,9E,18Q,22V,24T,28Y,30W,31L]hPYY (4-36)]",8.19
4,"CC(C)CC(=O)N[C@@H](C)C(=O)N1CCC[C@H]1C(=O)N[C@@H](CCC(=O)O)C(=O)N[C@@H](CCCCNC(=O)COCCOCCNC(=O)COCCOCCNC(=O)CC[C@H](NC(=O)CCCCCCCCCCCCCCCCC(=O)O)C(=O)O)C(=O)N1CCC[C@H]1C(=O)N[C@@H](CCC(=O)O)C(=O)N[C@@H](CCC(=O)O)C(=O)N[C@@H](CC(=O)O)C(=O)N[C@@H](C)C(=O)N[C@@H](C)C(=O)N1CCC[C@H]1C(=O)N[C@@H](CCC(=O)O)C(=O)N[C@@H](CCC(=O)O)C(=O)N[C@H](C(=O)N[C@@H](CCC(N)=O)C(=O)N[C@@H](CCCNC(=N)N)C(=O)N[C@@H](Cc1ccc(O)cc1)C(=O)N[C@@H](Cc1ccc(O)cc1)C(=O)N[C@H](C(=O)N[C@@H](CO)C(=O)N[C@@H](CC(C)C)C(=O)N[C@@H](CCCNC(=N)N)C(=O)N[C@@H](Cc1c[nH]cn1)C(=O)N[C@@H](Cc1ccc(O)cc1)C(=O)N[C@@H](Cc1ccc(O)cc1)C(=O)N[C@@H](CC(N)=O)C(=O)N[C@@H](Cc1c[nH]c2ccccc12)C(=O)N[C@@H](CC(C)C)C(=O)N[C@H](C(=O)N[C@@H](CCCNC(=N)N)C(=O)N[C@@H](CCC(N)=O)C(=O)N[C@@H](CCCNC(=N)N)C(=O)N[C@@H](Cc1ccc(O)cc1)C(N)=O)[C@@H](C)O)C(C)C)[C@@H](C)O [Compound 35, N{alpha-4}-(3-methylbutanoyl)-N{epsilon-7}-[2-(2-{2-[2-(2-{2-[(4S)-4-carboxy-4-(17-carboxyheptadecanamido)butanamido]ethoxy}ethoxy)acetamido]ethoxy}ethoxy)acetamido]-[4A,7K,9E,13A,17T,18Q,22V,28Y,30W,31L]hPYY (4-36)]",8.92
5,"CC(C)CC(=O)N[C@@H](C)C(=O)N1CCC[C@H]1C(=O)N[C@@H](CCC(=O)O)C(=O)N[C@@H](CCCCNC(=O)COCCOCCNC(=O)COCCOCCNC(=O)CC[C@H](NC(=O)CCCCCCCCCCCCCCCCC(=O)O)C(=O)O)C(=O)N[C@@H](C)C(=O)N[C@@H](CCC(=O)O)C(=O)N[C@@H](CCC(=O)O)C(=O)N[C@@H](CC(=O)O)C(=O)N[C@@H](C)C(=O)N[C@@H](CCC(=O)O)C(=O)N1CCC[C@H]1C(=O)N[C@@H](CCC(=O)O)C(=O)N[C@@H](CCC(=O)O)C(=O)N[C@@H](CC(C)C)C(=O)N[C@@H](CCC(N)=O)C(=O)N[C@@H](CCCNC(=N)N)C(=O)N[C@@H](Cc1ccc(O)cc1)C(=O)N[C@@H](Cc1ccc(O)cc1)C(=O)N[C@H](C(=O)N[C@@H](CO)C(=O)N[C@@H](CC(C)C)C(=O)N[C@@H](CCCNC(=N)N)C(=O)N[C@@H](Cc1c[nH]cn1)C(=O)N[C@@H](Cc1ccc(O)cc1)C(=O)N[C@@H](Cc1ccc(O)cc1)C(=O)N[C@@H](CC(N)=O)C(=O)N[C@@H](Cc1c[nH]c2ccccc12)C(=O)N[C@@H](CC(C)C)C(=O)N[C@H](C(=O)N[C@@H](CCCNC(=N)N)C(=O)N[C@@H](CCC(N)=O)C(=O)N[C@@H](CCCNC(=N)N)C(=O)N[C@@H](Cc1ccc(O)cc1)C(N)=O)[C@@H](C)O)C(C)C [Compound 36, N{alpha-4}-(3-methylbutanoyl)-N{epsilon-7}-[2-(2-{2-[2-(2-{2-[(4S)-4-carboxy-4-(17-carboxyheptadecanamido)butanamido]ethoxy}ethoxy)acetamido]ethoxy}ethoxy)acetamido]-[4A,7K,8A,9E,13E,18Q,22V,28Y,30W,31L]hPYY (4-36)]",7.97
